The text below walks through data of ChEMBL document CHEMBL4622910, “Design, synthesis and evaluation of pyrazolopyrimidinone derivatives as novel PDE9A inhibitors for treatment of Alzheimer's disease” (Bioorg Med Chem Lett, 2020).

The nature of series [1]: Solubility of the compound in water. The format is physicochemical.
Series [2] in a line: Half life in rat liver microsomes. It counts as ADME, Microsome.
A short description of series [3]: Hepatic clearance in rat liver microsomes. It counts as ADME, Microsome.
Series [4] in a line: Metabolic stability in rat liver microsomes. The format is ADME, Microsome.
The species entered for series [5] is Homo sapiens. The series can be described thus: Selectivity for PDE1 (unknown origin) over PDE9 (unknown origin).
The species named for series [6] is Homo sapiens. Nature of the series: Selectivity for PDE5 (unknown origin) over PDE9 (unknown origin).

Converted amounts (≈) assume the structure as drawn.

Turning to `C[C@@H](Nc1nc2c(cnn2C2CCCC2)c(=O)[nH]1)C(=O)Nc1ccc2c(c1)CNC2=O`, the concentration in solution in series [1] (solubility) came to 0.1 µg/mL (≈ 0.237 µM).

`C[C@@H](Nc1nc2c(cnn2C2CCCC2)c(=O)[nH]1)C(=O)Nc1ccc(C(F)(F)F)cn1`: the solubility in series [1] came to 6.3 µg/mL (≈ 14.5 µM).

With `C[C@@H](Nc1nc2c(cnn2C2CCCC2)c(=O)[nH]1)C(=O)Nc1nccs1`, the solubility in series [1] turned out to be 25 µg/mL (≈ 66.9 µM).

In series [1], `C[C@@H](Nc1nc2c(cnn2C2CCCC2)c(=O)[nH]1)C(=O)Nc1ccc2c(c1)CCC2=O` gave a solubility of 6 µg/mL (≈ 14.3 µM).

Molecule `COc1ccc(NC(=O)[C@@H](C)Nc2nc3c(cnn3C3CCCC3)c(=O)[nH]2)cc1` displayed a solubility in series [1] of 0.04 µg/mL (≈ 0.101 µM). In series [2], this molecule yielded a t1/2 of 23.3 min. Moreover, in series [3], the CLH amounted to 65.8 mL/min/kg.

`C[C@@H](Nc1nc2c(cnn2C2CCCC2)c(=O)[nH]1)C(=O)Nc1ccc(F)nc1`: the solubility in series [1] came to 52 µg/mL (≈ 135 µM). This molecule came in with a t1/2 in series [2] of 32.8 min. Also, the CLH in series [3] is 11.8 mL/min/kg. In series [4], this molecule gave a Stability of 41%.

`C[C@@H](Nc1nc2c(cnn2C2CCCC2)c(=O)[nH]1)C(=O)Nc1cnc(Cl)nc1` registered a solubility in series [1] of 0.5 µg/mL (≈ 1.24 µM).

As to `C[C@@H](Nc1nc2c(cnn2C2CCCC2)c(=O)[nH]1)C(=O)Nc1ccncc1`, the concentration in solution in series [1] (solubility) came to 20 µg/mL (≈ 54.4 µM).

The molecule `C[C@@H](Nc1nc2c(cnn2C2CCCC2)c(=O)[nH]1)C(=O)NC1=NCCS1` came in with a solubility in series [1] of 0.03 µg/mL (≈ 0.0799 µM).

Regarding `C[C@@H](Nc1nc2c(cnn2C2CCCC2)c(=O)[nH]1)C(=O)Nc1ccc2[nH]cnc2c1`, the solubility in series [1] is 195 µg/mL (≈ 480 µM). This molecule registered a t1/2 in series [2] of 57 min. The molecule also came in with a CLH in series [3] of 9.07 mL/min/kg. In series [4], this molecule registered a Stability of 54.7%.

In series [1], `C[C@@H](Nc1nc2c(cnn2C2CCCC2)c(=O)[nH]1)C(=O)Nc1ccc(C(F)(F)F)nc1` came in with a solubility of 5.1 µg/mL (≈ 11.7 µM).

Regarding `C[C@@H](Nc1nc2c(cnn2C2CCCC2)c(=O)[nH]1)C(=O)Nc1ccc2[nH]ncc2c1`, the solubility in series [1] is 103 µg/mL (≈ 253 µM). In series [2], this molecule yielded a t1/2 of 43.4 min. In addition, the CLH in series [3] came to 10 mL/min/kg. In series [4], this molecule displayed a Stability of 47.8%.

Turning to `CC(Nc1nc2c(cnn2C2CCCC2)c(=O)[nH]1)c1ccc(Cl)cc1` (stereo unspecified), the Selectivity ratio in series [5] turned out to be 46; in series [6], 31.

For `C[C@@H](Nc1nc2c(cnn2C2CCCC2)c(=O)[nH]1)C(=O)Nc1ccc2[nH]ccc2c1`, the concentration in solution in series [1] (solubility) came to 0.1 µg/mL (≈ 0.247 µM).

For the molecule `C[C@@H](Nc1nc2c(cnn2C2CCCC2)c(=O)[nH]1)C(=O)Nc1ccc2nccn2c1`, in series [1], the concentration in solution (solubility) was 74 µg/mL (≈ 182 µM). The t1/2 in series [2] was 32.6 min. The CLH in series [3] came out at 11.8 mL/min/kg. In addition, the Stability in series [4] worked out at 40.8%.

On to `C[C@@H](Nc1nc2c(cnn2C2CCCC2)c(=O)[nH]1)C(=O)Nc1ccc2c(c1)COC2`, for which the solubility in series [1] is 0.03 µg/mL (≈ 0.0734 µM).
